Laboratory results taken from paper PMC6522510 (Nature Communications, 2019).
Where two headings read alike, the source gives them in different places.

Assays:
[1] = tested on: MLLr primary AML blast samples; experiment: Ex vivo drug treatment of primary AML blasts on mesenchymal stromal cells; format: cell-based; conditions: Homo sapiens; primary blasts on MSC, 96 h, range over patient samples
[2] = tested on: M07e; experiment: Secondary dose-response HTS, Cell Titer Glo; format: cell-based, human; conditions: Homo sapiens, M-07e
[3] = tested on: AMKL patient-derived xenograft; experiment: In vivo efficacy, survival; set-up: species or system NSG-SGM3 mice; conditions: AMKL PDX, 50 mg kg−1 q4d, i.p.
[4] = tested on: U937; experiment: Secondary dose-response HTS, Cell Titer Glo; format: cell-based, human; conditions: Homo sapiens, U-937; secondary HTS, 72 h, average of triplicate; read-out: EC50 U937
[5] = tested on: Mll-PTD/wt:Flt3ITD/ITD primary transplants; experiment: In vivo efficacy, survival; set-up: species or system mice; conditions: Mll-PTD/wt:Flt3ITD/ITD primary transplants, 50 mg kg−1 q4d, i.p.
[6] = tested on: ML-2-luciferase/YFP+ xenograft; experiment: In vivo efficacy, survival; set-up: species or system NSG mice; conditions: ML-2 xenograft, 50 mg kg−1 q4d, i.p.
[7] = tested on: U937; format: cell-based; conditions: Homo sapiens, U-937; 72 h, Cell Titer Glo
[8] = tested on: CHRF288-11; format: cell-based; conditions: Homo sapiens; 72 h, Cell Titer Glo; read-out: IC50 CHRF288-11
[9] = tested on: CHRF288-11-luciferase/YFP+ xenograft; experiment: In vivo efficacy, survival; set-up: species or system NSG mice; conditions: CHRF288-11 xenograft, 50 mg kg−1 q4d, i.p.
[10] = tested on: AMKL primary AML blast samples; experiment: Ex vivo drug treatment of primary AML blasts on mesenchymal stromal cells; format: cell-based; conditions: Homo sapiens; primary blasts on MSC, 96 h
[11] = tested on: CMS; experiment: Secondary dose-response HTS, Cell Titer Glo; format: cell-based, human; conditions: Homo sapiens; secondary HTS, 72 h, average of triplicate; read-out: EC50 CMS
[12] = tested on: CHRF288-11; experiment: Secondary dose-response HTS, Cell Titer Glo; format: cell-based, human; conditions: Homo sapiens; secondary HTS, 72 h, average of triplicate; read-out: EC50 CHRF288-11
[13] = tested on: panel of 8 AML cell lines; experiment: Secondary dose-response HTS, whole panel; format: cell-based, human; conditions: Homo sapiens; all cell lines; read-out: potency across subtypes in the secondary HTS
[14] = In vivo tolerability / maximum tolerated dose; set-up: species or system mice
Protocol: Next, we sought to compare the in vivo efficacy of gemcitabine and cabazitaxel to the standard of care, cytarabine. Due to limitations with tolerability, we have previously treated our AML xenograft models with low-dose cytarabine[13],[31]. […] Tolerability studies of gemcitabine at the same dose and schedule was not tolerated. […] Similarly, we performed tolerability of cabazitaxel using multiple doses on an intermittent every 3 or 4-day schedule; the only tolerable dose was 5 mg/kg.
All animal studies were performed in accordance with Animal Care and Use Programs under protocols approved by the Institutional Animal Care and Use Committee at OSU. We have complied with the relevant ethical considerations for animal research overseen by this committee. Mice were housed in a barrier facility. Non-tumor bearing Ly5.2 C57Bl/6 (BoyJ) mice were treated with 100, 120, or 140 mg kg^−1 gemcitabine on an intermittent schedule every 3 days for 3 weeks; 3 or 6 mg kg^−1 doses were used to evaluate daily for 5 days schedule. All doses were administered by intraperitoneal injection; tolerability was assessed by daily weights and observation of changes in body condition.
Supplementary Figure 12. Establish maximum tolerated dose of gemcitabine. Non-tumor bearing female BoyJ mice were treated on an intermittent schedule every 3 days for 3 weeks with 100, 120, or 140 m gkg-1 gemcitabine (Gem ) or treated on a daily schedule once a day for 5 days with 3 or 6 m gkg-1 Gem. Daily weight of treated mice; data reported as a percent weight loss from day 0. Arrow indicate treatment days.

[15] = tested on: ML2; experiment: Secondary dose-response HTS, Cell Titer Glo; format: cell-based, human; conditions: Homo sapiens, ML-2
[16] = tested on: U937; experiment: cells; set-up: species or system AML cell lines (8); Secondary HTS, 10-point dose-response in triplicate, Cell Titer Glo viability, four-parameter fit EC50; conditions: Homo sapiens, U-937, 72 h, read-out: U937
[17] = tested on: CBFA2T3-GLIS2/JAK2V617F-induced AMKL model; experiment: In vivo efficacy, survival; set-up: species or system mice; conditions: CBFA2T3-GLIS2/JAK2V617F-Luc+ quaternary transplants, i.p.
[18] = tested on: AML cell lines; conditions: human, 5 min, 1 µM
[19] = tested on: THP-1; format: cell-based; conditions: Homo sapiens, 72 h, Cell Titer Glo

Which results are given for `Nc1ccn([C@@H]2O[C@H](CO)[C@@H](O)C2(F)F)c(=O)n1` [Gemcitabine, gemcitabine]?
IC50 [1]: 0.267 to 4.23 µM; EC50 ([2]; secondary HTS, 72 h, average of triplicate, read-out: EC50 M07e): 0.06 µM; EC50 ([2]; secondary high-throughput screen, M07e, read-out: average effective concentration, M07e): 0.062 µM; Median survival [3]: 76 days; EC50 [4]: 0.01 µM; Median survival [5]: 69 days; Median survival [6]: 45 days; IC50 [7]: 0.031 µM; IC50 [8]: 0.0004 µM; Median survival [9]: 48 days; Median survival ([9]; x 2 cycles): 66 days; IC50 [10]: 0.108 µM; EC50 [11]: 0.03 µM; EC50 [12]: 0.003 µM; EC50 [13]: < 0.065 µM; MTD at 5 days ([14]; female, Ly5.2 C57Bl/6 (BoyJ), mouse, in vivo, ip, immunocompetent (BoyJ) mice, daily for 5 days, i.p., read-out: MTD, daily administration): 3 mg/kg; MTD, intermittent administration ([14]; immunocompetent (BoyJ) mice, q3d for 3 weeks, i.p.): 120 mg/kg; tolerability ([14]; mouse, in vivo): not tolerated; EC50 ([15]; secondary HTS, 72 h, average of triplicate, read-out: EC50 ML2): 0.002 µM; EC50 ([15]; secondary high-throughput screen, read-out: average effective concentration, ML-2): 0.0017 µM; EC50 [16]: 0.00773 µM; Median survival ([17]; 3 mg kg−1 daily x 5 days): 91 days; Median survival ([17]; 120 mg kg−1 q3d): > 125 days; intracellular uptake, gemcitabine relative to cytarabine [18]: 1.2–3.6 fold; IC50 [19]: 0.0035 µM
